Assay results from patent publication US6461619B1 (Somerset Pharmaceuticals, Inc., priority 1998, dated 2002).
Where a name gives a salt, the structure may show the parent alone.

Tests used:
[1] = test system: superoxide dysmutase, catalase and glutathione peroxidase; conditions: background statement (Jenner, et al.); cited from earlier work
[2] = test system: second-degree burn wounds; test: second-degree burn wound model, epidermal migration (epithelization) assessment; assay type: in vivo, Swine; conditions: for Percent of wounds completely epithelized / number of wounds healed (completely epithelized) over the number of wounds assessed: pig
Description: The ability of selegiline and desmethylselegiline to assist in the healing of burns was tested using a second-degree burn wound model. In second-degree burns, the entire surface of the epidermis is destroyed. An epidermal covering is regenerated from the remaining epithelial and epidermal cells adjacent to the burns. This phase of the healing process is called epithelization.
Swine were used for the experimental research animal because their skin has many morphological similarities to human skin. Seven young female specific pathogen free (SPF:Ken-O-Kaw Farms, Windsor, Ill.) pigs weighing 25-30 kg were kept in house for two weeks prior to initiating the experiment. These animals were fed a basal diet ad libitum and housed individually in facilities with controlled temperature (19-21° C.) and lights (12 h/12 h LD).
Experimental animals were clipped with standard animal clippers on the day of the experiment. The skin on the back and both sides of the animal was prepared for wounding by washing with a non-antibiotic soap and sterile water. Each animal was anesthetized i.m. with ketamine-HCl (20 mg/kg), xylazine (2 mg/kg) and atropine (0.05 mg/kg), followed by mask inhalation of an isoflurane and oxygen combination. Five specifically designed cylindrical brass rods weighing 358 g each were heated in a boiling water bath to 100° C. A rod was removed from the water bath and wiped dry before being applied to the skin surface to prevent water droplets from creating a steam burn on the skin. The brass rod was held at a vertical position on the skin for six seconds with all pressure being supplied by gravity in order to make a burn 8.5 mm diameter×0.8 mm deep. Immediately after burning, the roof of the burn blister was removed with a sterile spatula. The burn wounds were made approximately 2 cm from each other.
Approximately 90 burn wounds were made on the anterior two-thirds of the animal. The posterior third of the animal cannot be used because of anatomical differences in burn wound healing (a more rapid healing of burns has been observed at that position).
A total of seven animals were used and a total of fifteen wounds per treatment group were analyzed on each of days 7-12 after wounding. Treatments were coded to maintain blind study compliance. The burn wounds were treated with 25 ug of test article (enough to cover each wound). Treatments were allowed to penetrate into the sites for at least a 20 minute time period. Each treatment was applied within 20 minutes of blister removal and treatment occurred once a day for the first five days.
Beginning on day seven after wounding (day 0) and each day thereafter for four to six days, five burn wounds and the surrounding normal skin from each treatment area were excised using an electrokeratome. Any specimens that were not excised intact were discarded. The excised wounds and the surrounding normal skin were incubated in 0.5 M NaBr for 24 hours at 37° C. After incubation, the specimens were separated into epidermal and dermal sheets. The epidermis was examined macroscopically for defects in the area of the burn wounds. Epithelization was considered complete if no defect was present (healed). […] The epidermal sheet was placed on cardboard for a permanent record.
The number of wounds healed (completely epithelized) were divided by the total number of wounds sampled per day and multiplied by 100.

[3] = 10^-4M topical, day 7 after burning
[4] = 10^-4M topical, day 8 after burning
[5] = 10^-4M topical, day 9 after burning
[6] = 10^-4M topical, day 10 after burning
[7] = 10^-4M topical, day 11 after burning
[8] = 10^-4M topical, day 12 after burning
[9] = 10^-4M topical, day 13 after burning
[10] = 10^-6M topical, day 7 after burning
[11] = 10^-6M topical, day 8 after burning
[12] = 10^-6M topical, day 9 after burning
[13] = 10^-6M topical, day 10 after burning
[14] = 10^-6M topical, day 11 after burning
[15] = 10^-6M topical, day 12 after burning
[16] = 10^-6M topical, day 13 after burning
[17] = 10^-8M topical, day 7 after burning
[18] = 10^-8M topical, day 8 after burning
[19] = 10^-8M topical, day 9 after burning
[20] = 10^-8M topical, day 10 after burning
[21] = 10^-8M topical, day 11 after burning
[22] = 10^-8M topical, day 12 after burning
[23] = 10^-8M topical, day 13 after burning

## C#CCN(C)[C@H](C)Cc1ccccc1 [selegiline HCl, selegiline]
[1]
  activity of the endogenous anti-oxidants superoxide dysmutase, catalase and glutathione peroxidase: increase the activity
[2]; 10^-4 M and 10^-6 M
  initiation of epithelization compared with other treatment groups: earlier time point than all other treatment groups
[2]; [3]
  Percent of wounds completely epithelized: (0%)
  number of wounds healed (completely epithelized) over the number of wounds assessed:  0/15
[2]; [4]
  Percent of wounds completely epithelized: (0%)
  number of wounds healed (completely epithelized) over the number of wounds assessed:  0/15
[2]; [5]
  Percent of wounds completely epithelized: (0%)
  number of wounds healed (completely epithelized) over the number of wounds assessed:  0/15
[2]; [6]
  Percent of wounds completely epithelized: 20%
  number of wounds healed (completely epithelized) over the number of wounds assessed:  3/15
[2]; 10^-4M topical, day 10 after burning, listed as A-1
  Percent of wounds completely epithelized: (20%)
[2]; [7]
  Percent of wounds completely epithelized: 33%
  number of wounds healed (completely epithelized) over the number of wounds assessed:  5/15
[2]; 10^-4M topical, day 11 after burning, listed as A-1
  Percent of wounds completely epithelized: (33%)
[2]; [8]
  Percent of wounds completely epithelized: 33%
  number of wounds healed (completely epithelized) over the number of wounds assessed:  6/15
[2]; 10^-4M topical, day 12 after burning, listed as A-1
  Percent of wounds completely epithelized: (40%)
[2]; [9]
  Percent of wounds completely epithelized: 33%
  number of wounds healed (completely epithelized) over the number of wounds assessed:  6/15
[2]; 10^-4M topical, day 13 after burning, listed as A-1
  Percent of wounds completely epithelized: (40%)
[2]; [10]
  Percent of wounds completely epithelized: (0%)
  number of wounds healed (completely epithelized) over the number of wounds assessed:  0/15
[2]; [11]
  Percent of wounds completely epithelized: (0%)
  number of wounds healed (completely epithelized) over the number of wounds assessed:  0/15
[2]; [12]
  Percent of wounds completely epithelized: (0%)
  number of wounds healed (completely epithelized) over the number of wounds assessed:  0/15
[2]; [13]
  Percent of wounds completely epithelized: 20%
  number of wounds healed (completely epithelized) over the number of wounds assessed:  3/15
[2]; 10^-6M topical, day 10 after burning, listed as A-2
  Percent of wounds completely epithelized: (20%)
[2]; [14]
  Percent of wounds completely epithelized: 33%
  number of wounds healed (completely epithelized) over the number of wounds assessed:  5/15
[2]; 10^-6M topical, day 11 after burning, listed as A-2
  Percent of wounds completely epithelized: (33%)
[2]; [15]
  Percent of wounds completely epithelized: 40%
  number of wounds healed (completely epithelized) over the number of wounds assessed:  6/15
[2]; 10^-6M topical, day 12 after burning, listed as A-2
  Percent of wounds completely epithelized: (40%)
[2]; [16]
  Percent of wounds completely epithelized: 40%
  number of wounds healed (completely epithelized) over the number of wounds assessed:  6/15
[2]; 10^-6M topical, day 13 after burning, listed as A-2
  Percent of wounds completely epithelized: (40%)
[2]; [17]
  Percent of wounds completely epithelized: (0%)
  number of wounds healed (completely epithelized) over the number of wounds assessed:  0/15
[2]; [18]
  Percent of wounds completely epithelized: (0%)
  number of wounds healed (completely epithelized) over the number of wounds assessed:  0/15
[2]; [19]
  Percent of wounds completely epithelized: (0%)
  number of wounds healed (completely epithelized) over the number of wounds assessed:  0/15
[2]; [20]
  Percent of wounds completely epithelized: (0%)
  number of wounds healed (completely epithelized) over the number of wounds assessed:  0/15
[2]; [21]
  Percent of wounds completely epithelized: None
  number of wounds healed (completely epithelized) over the number of wounds assessed:  0/15
[2]; 10^-8M topical, day 11 after burning, listed as A-3
  Percent of wounds completely epithelized: (0%)
[2]; [22]
  Percent of wounds completely epithelized: 7%
  number of wounds healed (completely epithelized) over the number of wounds assessed:  1/15
[2]; 10^-8M topical, day 12 after burning, listed as A-3
  Percent of wounds completely epithelized: (7%)
[2]; [23]
  Percent of wounds completely epithelized: Thirty-eight
  number of wounds healed (completely epithelized) over the number of wounds assessed:  6/16
[2]; 10^-8M topical, day 13 after burning, listed as A-3
  Percent of wounds completely epithelized: (38%)
[2]; first three days of treatment, normal again after 15 minutes
  wound crust colour during absorption of applied agent: more pronounced
